The text below walks through data of patent US11384060B2, “Amide compounds and use thereof” (ALPHALA CO., LTD., priority 2017, dated 2022).

Read-outs that look alike come from different tables or passages of the source. Where only a bound is given, the exact number is not on record here.

For orientation: IC50 means the point on the concentration scale where inhibition reaches its midpoint.

The target in experiment [1] is T1, glucagon receptor (GCGR) (Homo sapiens, UniProt P47871).
T1 construct: expressed in transfected cells; host or cells: CHO-K1 cells overexpressing GCGR (membrane fractions)
T1 sequence (P47871 26-477): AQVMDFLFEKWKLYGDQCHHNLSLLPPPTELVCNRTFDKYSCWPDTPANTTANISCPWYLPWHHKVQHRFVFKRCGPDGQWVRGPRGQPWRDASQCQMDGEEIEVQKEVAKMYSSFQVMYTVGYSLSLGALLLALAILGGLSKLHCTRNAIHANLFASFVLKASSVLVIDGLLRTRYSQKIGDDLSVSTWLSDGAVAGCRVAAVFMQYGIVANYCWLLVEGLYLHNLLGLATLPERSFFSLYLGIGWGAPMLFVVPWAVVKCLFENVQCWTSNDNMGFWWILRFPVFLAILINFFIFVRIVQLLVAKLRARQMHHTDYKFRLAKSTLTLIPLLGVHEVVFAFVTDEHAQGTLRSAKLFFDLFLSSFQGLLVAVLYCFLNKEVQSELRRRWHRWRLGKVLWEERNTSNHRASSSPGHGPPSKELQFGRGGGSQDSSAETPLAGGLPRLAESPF
Put plainly: I125-glucagon binding assay (competition, GCGR membrane fractions). A digest of the protocol:
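Membranes from CHO-K1 cells overexpressing GCGR, 7.5 μg/well in 50 mM Tris pH 7.4 with 0.5% BSA, were preincubated 5 min with serially diluted compounds, then given 0.0625 nM final I^125-glucagon for 30 min at 25° C. Bound label was filtered on PEI-coated GF/B and counted; IC50 by non-linear regression.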

The target of experiment [2] is T2, glucagon receptor (GCGR) overexpressed CHO-K1 cells or human primary hepatocytes (Homo sapiens, UniProt P47871).
T2 construct: expressed in transfected cells; host or cells: GCGR overexpressed CHO-K1 cells or human primary hepatocytes (endogenous receptor)
T2 sequence (P47871 26-477): as above
The experiment in a line: Glucagon cAMP inhibition assay (Cisbio cAMP Dynamic 2 HTRF). In kind it is cell-based. A digest of the protocol: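 GCGR-overexpressing CHO-K1 cells or human primary hepatocytes in HBSS with 0.1% BSA and 800 nM IBMX, pre-incubated 30 min with serially diluted compounds (1% DMSO final), then stimulated 30 min at room temperature with glucagon at its EC50. cAMP measured by HTRF after 60 min lysis; IC50 by non-linear regression.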
Background: TR-FRET usually uses a lanthanide donor and a delayed reading to cut background.

Setting [3] is: competition with I125-glucagon 0.0625 nM, membrane fractions of GCGR overexpressed CHO-K1 cells.
Where [4] appears, read: inhibition of glucagon (EC50 concentration) induced cAMP production.

For the compound `CC(C)[C@@H](COc1nnc(-c2ccc(OC(F)(F)F)cc2)o1)Nc1ccc(C(=O)NCCC(=O)O)cc1` [Compound 22-15, (S)-3-(4-((3-methyl-1-((5-(4-(trifluoromethoxy)phenyl)-1,3,4-oxadiazol-2-yl)oxy)butan-2-yl)amino)benzamido)propanoic Acid], the IC50 in experiment [1] is over 30 µM. In addition, the “IC50 cAMP” value in experiment [2] was over 30 µM.

The compound `CCCOC[C@H](Cc1ccc(-c2ccc(C(F)(F)F)cc2)cc1)Nc1ccc(C(=O)NCCC(=O)O)cc1` [Compound 19-13, (S)-3-(4-((1-propoxy-3-(4′-(trifluoromethyl)-[1,1′-biphenyl]-4-yl)propan-2-yl)amino)benzamido)propanoic Acid] gave an IC50 in experiment [1] of 0.621 µM. Besides, the “IC50 cAMP” value in experiment [2] came to 0.74 µM.

`CC(C)C[C@H](Nc1ccc(C(=O)NCCC(=O)O)cc1)C(=O)Nc1ccc(-c2cc3ccccc3o2)cc1` [Compound 23-5, (S)-3-(4-((1-((4-(benzofuran-2-yl)phenyl)amino)-4-methyl-1-oxopentan-2-yl)amino)benzamido)propanoic Acid] registered an IC50 in experiment [1] of 0.08 µM. The “IC50 cAMP” value in experiment [2] was determined as 3.5 µM.

Consider `CC[C@H](C)[C@@H](COc1nnc(-c2ccc(C(F)(F)F)cc2F)o1)Nc1ccc(C(=O)NCCC(=O)OC)cc1` [Compound 22-20, Methyl 3-(4-(((2S,3S)-1-((5-(2-fluoro-4-(trifluoromethyl)phenyl)-1,3,4-oxadiazol-2-yl)oxy)-3-methylpentan-2-yl)amino)benzamido)propanoate], for which the IC50 in experiment [1] was over 30 µM. Besides, in experiment [2], the “IC50 cAMP” value was over 30 µM.

In turn, `CCCC[C@@H](COc1ccc(-c2ccc(C(F)(F)F)cc2F)c(Cl)c1)Nc1ccc(C(=O)NCCC(=O)O)cc1` [Compound 3-22, (S)-3-(4-((1-((2-chloro-2′-fluoro-4′-(trifluoromethyl)-[1,1′-biphenyl]-4-yl)oxy)hexan-2-yl)amino)benzamido)propanoic Acid] displayed an IC50 in experiment [1] (setting [3]) of 0.083 µM. Moreover, the “IC50 cAMP” value in experiment [2] (setting [4]) came to 0.054 µM.

In the case of `CC[C@H](C)[C@@H](COc1ccc(-c2cc3ccccc3o2)c(OC)c1)Nc1ccc(C(=O)NCCC(=O)O)cc1` [Compound 13-1, 3-(4-(((2S,3S)-1-(4-(benzofuran-2-yl)-3-methoxyphenoxy)-3-methylpentan-2-yl)amino)benzamido)propanoic Acid], the IC50 in experiment [1] (setting [3]) came out at 0.046 µM. Also, in experiment [2] (setting [4]), the “IC50 cAMP” value came out at 0.157 µM.

Turning to `O=C(O)CCNC(=O)c1ccc(N[C@H](Cc2ccc(-c3ccc(C(F)(F)F)cc3)cc2)C(=O)Nc2ccc(OC(F)(F)F)cc2)cc1` [Compound 24-28, (R)-3-(4-((1-oxo-1-((4-(trifluoromethoxy)phenyl)amino)-3-(4′-(trifluoromethyl)-[1,1′-biphenyl]-4-yl)propan-2-yl)amino)benzamido)propanoic Acid], the IC50 in experiment [1] amounted to 0.0465 µM. The “IC50 cAMP” value in experiment [2] amounted to 1.54 µM.

With `CC[C@H](C)[C@@H](COc1ccc(-c2cc3ccccc3o2)cc1)Nc1ccc(C(=O)NC[C@@H](O)C(=O)O)cc1` [Compound 1-9, (R)-3-(4-(((2S,3S)-1-(4-(benzofuran-2-yl)phenoxy)-3-methylpentan-2-yl)amino)benzamido)-2-hydroxypropanoic Acid], the IC50 in experiment [1] (setting [3]) was 0.26 µM. The “IC50 cAMP” value in experiment [2] (setting [4]) amounted to 3.6 µM.

For the compound `CCCC[C@H](Nc1ccc(C(=O)NCCC(=O)O)cc1)C(=O)Nc1ccc(-c2cc3ccccc3o2)cc1` [Compound 23-35, (S)-3-(4-((1-((4-(benzofuran-2-yl)phenyl)amino)-1-oxohexan-2-yl)amino)benzamido) propanoic Acid], the IC50 in experiment [1] was determined as 0.186 µM. Besides, in experiment [2], the “IC50 cAMP” value amounted to 15.397 µM.

For the compound `CCCC[C@@H](COc1ccc(-c2ccc(C(F)(F)F)cc2F)c(OC)c1)Nc1ccc(C(=O)NCCC(=O)O)cc1` [Compound 13-14, (S)-3-(4-((1-((2′-fluoro-2-methoxy-4′-(trifluoromethyl)-[1,1′-biphenyl]-4-yl)oxy)hexan-2-yl)amino)benzamido)propanoic Acid], the IC50 in experiment [1] (setting [3]) stood at 0.015 µM. In addition, the “IC50 cAMP” value in experiment [2] (setting [4]) was determined as 0.066 µM.

In the case of `COc1cc(OC[C@@H](Nc2ccc(C(=O)NCCC(=O)O)cc2)C(C)C)ccc1-c1ccc(Cl)cc1Cl` [Compound 13-7, (S)-3-(4-((1-((2′,4′-dichloro-2-methoxy-[1,1′-biphenyl]-4-yl)oxy)-3-methylbutan-2-yl)amino)benzamido)propanoic Acid], the IC50 in experiment [1] (setting [3]) turned out to be 0.095 µM. The “IC50 cAMP” value in experiment [2] (setting [4]) turned out to be 0.139 µM.

In experiment [1], `CCCC[C@@H](COc1nnc(-c2cc3ccccc3o2)o1)Nc1ccc(C(=O)NCCC(=O)O)cc1` [Compound 22-4, (S)-3-(4-((1-((5-(benzofuran-2-yl)-1,3,4-oxadiazol-2-yl)oxy)hexan-2-yl)amino)benzamido)propanoic Acid] gave an IC50 of over 30 µM. For the same compound, the “IC50 cAMP” value in experiment [2] was over 30 µM.

For `CC(C)[C@@H](COc1ccc(-c2nc3ccccc3s2)c(F)c1)Nc1ccc(C(=O)NCCC(=O)O)cn1` [Compound 9-5, (S)-3-(6-((1-(4-(benzo[d]thiazol-2-yl)-3-fluorophenoxy)-3-methylbutan-2-yl)amino)nicotinamido)propanoic Acid], the IC50 in experiment [1] (setting [3]) was 0.606 µM. Also, the “IC50 cAMP” value in experiment [2] (setting [4]) amounted to 2.408 µM.

As to `CC(C)C[C@@H](COc1ccc(-c2ccc(C(F)(F)F)cc2F)c(F)c1)Nc1ccc(C(=O)NCCC(=O)O)cc1` [Compound 8-6, (S)-3-(4-((1-((2,2′-difluoro-4′-(trifluoromethyl)-[1,1′-biphenyl]-4-yl)oxy)-4-methylpentan-2-yl)amino)benzamido)propanoic Acid], in experiment [1] (setting [3]), the IC50 is 0.172 µM. In addition, the “IC50 cAMP” value in experiment [2] (setting [4]) turned out to be 0.428 µM.

In experiment [1] (setting [3]), `CC(C)(C)[C@@H](COc1ccc(-c2ccc(C(F)(F)F)cc2Cl)cc1)Nc1ccc(C(=O)NCCC(=O)O)cc1` [Compound 1-42, (S)-3-(4-((1-((2′-chloro-4′-(trifluoromethyl)-[1,1′-biphenyl]-4-yl)oxy)-3,3-dimethylbutan-2-yl)amino)benzamido)propanoic aid] had an IC50 of 0.234 µM. Moreover, the “IC50 cAMP” value in experiment [2] (setting [4]) was 0.298 µM.

For `CC[C@H](C)[C@@H](COc1ccc(-c2ccc(Cl)cc2Cl)c(OC)c1)Nc1ccc(C(=O)NCCC(=O)O)cc1` [Compound 13-2, 3-(4-(((2S,3S)-1-((2′,4′-dichloro-2-methoxy-[1,1′-biphenyl]-4-yl)oxy)-3-methylpentan-2-yl)amino)benzamido)propanoic Acid], the IC50 in experiment [1] (setting [3]) came out at 0.092 µM. Moreover, the “IC50 cAMP” value in experiment [2] (setting [4]) stood at 0.254 µM.

`O=C(NCCS(=O)(=O)O)c1ccc(N[C@@H](Cc2ccccc2)C(=O)Nc2ccc(-c3cc4ccccc4o3)cc2)cc1` [Compound 23-24, (S)-2-(4-((1-((4-(benzofuran-2-yl)phenyl)amino)-1-oxo-3-phenylpropan-2-yl)amino)benzamido)ethane-1-sulfonic Acid] displayed an IC50 in experiment [1] (uM) of over 10 µM. Besides, the “IC50 cAMP” value in experiment [2] (uM) is over 10 µM.

As for `Cc1cc(C)c(-c2ccc(C[C@H](Nc3ccc(C(=O)NCCC(=O)O)cc3)c3nnc(-c4ccc(C(C)(C)C)cc4)o3)cc2)c(C)c1` [Compound 20-5, (S)-3-(4-((1-(5-(4-(tert-butyl)phenyl)-1,3,4-oxadiazol-2-yl)-2-(2′,4′,6′-trimethyl-[1,1′-biphenyl]-4-yl)ethyl)amino)benzamido)propanoic Acid], in experiment [1], the IC50 amounted to 4.86 µM. For the same compound, the “IC50 cAMP” value in experiment [2] was over 30 µM.

Turning to `CCCC[C@@H](COc1ccc(-c2ccc(C(F)(F)F)cc2)c(Cl)c1)Nc1ccc(C(=O)NCCC(=O)O)cc1` [Compound 3-16, (S)-3-(4-((1-((2-chloro-4′-(trifluoromethyl)-[1,1′-biphenyl]-4-yl)oxy)hexan-2-yl)amino)benzamido)propanoic Acid], in experiment [1] (setting [3]), the IC50 worked out at 0.051 µM. For the same compound, the “IC50 cAMP” value in experiment [2] (setting [4]) came out at 0.3677 µM.

Take `Cc1c(-c2nnc([C@H](Cc3ccc(-c4ccc(C(F)(F)F)cc4)cc3)Nc3ccc(C(=O)NCCS(=O)(=O)O)cc3)o2)oc2ccccc12` [Compound 20-7, (S)-2-(4-((1-(5-(3-methylbenzofuran-2-yl)-1,3,4-oxadiazol-2-yl)-2-(4′-(trifluoromethyl)-[1,1′-biphenyl]-4-yl)ethyl)amino)benzamido)ethane-1-sulfonic Acid]: in experiment [1], the IC50 is over 30 µM. Besides, the “IC50 cAMP” value in experiment [2] was over 30 µM.

As to `CCCOC[C@H](Cc1ccc(-c2ccc(OC(F)(F)F)cc2)cc1)Nc1ccc(C(=O)NCCC(=O)O)cc1` [Compound 19-24, (S)-3-(4-((1-propoxy-3-(4′-(trifluoromethoxy)-[1,1′-biphenyl]-4-yl)propan-2-yl)amino)benzamido)propanoic Acid], the concentration for half-maximal inhibition (IC50) in experiment [1] turned out to be 0.512 µM. In addition, the “IC50 cAMP” value in experiment [2] amounted to 0.6304 µM.

`CCCCC[C@@H](Cc1ccc(-c2ccc(OC(F)(F)F)cc2)cc1)Nc1ccc(C(=O)NCCC(=O)O)cc1` [Compound 19-9, (S)-3-(4-((1-(4′-(trifluoromethoxy)-[1,1′-biphenyl]-4-yl)heptan-2-yl)amino)benzamido)propanoic Acid] registered an IC50 in experiment [1] of 0.151 µM. Besides, the “IC50 cAMP” value in experiment [2] amounted to 0.0768 µM.

With `Cc1nc(OC[C@H](CC(C)C)Nc2ccc(C(=O)NCCC(=O)O)cc2)ccc1-c1cc2ccccc2o1` [Compound 18-9, (S)-3-(4-((1-((5-(benzofuran-2-yl)-6-methylpyridin-2-yl)oxy)-4-methylpentan-2-yl)amino)benzamido)propanoic Acid], the IC50 in experiment [1] was found to be 0.207 µM. The “IC50 cAMP” value in experiment [2] was determined as 0.4299 µM.
